Values quoted from earlier work in patent US9597306B1, “Fumarate compounds, pharmaceutical compositions thereof, and methods of use” (priority 2015, dated 2017).

aqueous solubility: poor
SMILES: COC(=O)/C=C/C(=O)OC [DMF, dimethylfumarate]
